Data published in US4507287A, “Preparation and method for the treatment of acne” (priority 1983, dated 1985).
Like-named read-outs stand apart in the source and are kept apart here.

Tests used:
acne [1] = assay: topical treatment of acne with antibiotics mixed with DMSO; type: in vivo; settings: antibiotic mixed with DMSO
Excerpt: These antibiotics including, amikacin, cefamandole, cefoxitin, erythromycin, tetracycline, tobramycin, vancomycin, lincomycin, and carbenicillin.

acne [2] = settings: oral, long-term; Plewig et al.; cited from earlier work
normal skin [3] = settings: in vivo
Description: This rash, however, usually disappears shortly thereafter with no ill effects. Annals of the New York Academy of Sciences, Vol. […], (1967). S. W. Jacob, E. E. Rosenbaum, and D. C. Wood, eds., Vol. 1, Dimethyl Sulfoxide, 99 (1971), and Vol. 243, Annals of the New York Academy of Sciences, (1975). In the present invention DMSO is diluted to 70% with demineralized water before ara-A is added.

[4] = animals and humans; cited from earlier work
normal skin [5] = settings: applied to skin; cited from earlier work
acne lesions = assay: topical treatment of acne with ara-A and DMSO; type: in vivo; settings: benzocaine added to ara-A/DMSO medication
Excerpt: Treatment of acne with the disclosed preparation should begin as soon as the first sign of the lesion (pimple) is apparent. […] The medication should be applied every two to four hours for the first two days during waking hours.

[6] = in vivo
Excerpt: Also one to two percent high viscosity carboxymethylcellulose, Carbopol (manufactured by Firestone Company, Akron, Ohio), or other suitable gelling agent might be added to the mixture to provide a gel which may be preferred for topical application.

rats = assay: acute oral toxicity of ara-A in rats; type: in vivo; settings: extrapolated from LD50 in rats and mice
Description: Regarding toxicity or other side effects on the patient of the proposed preparation, extensive pharmacologic and toxicity studies on ara-A have been carried out in animals and in man. […] This dose level indicates a low order of toxicity to a single parenteral dose. The acute oral LD50 in both rats and mice is greater than […]. This amount would be equivalent to more than […] (one and two thirds pound) in an average 150 pound person. […] In the form used in the present invention and with treatment by topical application, it is highly unlikely that any toxic side effects of ara-A would be observed.

[7] = solubility of ara-A in DMSO/water versus water; type: physicochemical; settings: DMSO in the solvent carrier medium
[8] = recovery of unchanged ara-A from the DMSO and water solution; type: physicochemical; settings: under the conditions of preparation
Description: There are no special procedures involved in preparing of the preparation for the treatment of acne of the present invention. The demineralized water and DMSO can be mixed first, and the ara-A (and benzocaine if used) is then dissolved in the DMSO and water solution. The ara-A can be added to the pure DMSO, and water can be added last. When water and DMSO are mixed, the solution becomes warm because there is a positive heat of solution. […] Ara-A can be recovered from the DMSO and water solution virtually 100% as unchanged ara-A.

DNA viruses = settings: in vitro and in vivo (animal models or man), cited from earlier work
DNA polymerase = settings: suppresses viral replication; cited from earlier work
[9] = cited from earlier work
[10] = intravenous form; cited from earlier work

## CO[C@@]1(NC(=O)Cc2cccs2)C(=O)N2C(C(=O)O)=C(COC(N)=O)CS[C@@H]21 [cefoxitin]
Acne [1]
  effectiveness in topical treatment of acne: effective in the topical treatment of acne

## CC[C@H]1OC(=O)[C@H](C)[C@@H](O[C@H]2C[C@@](C)(OC)[C@@H](O)[C@H](C)O2)[C@H](C)[C@@H](O[C@@H]2O[C@H](C)C[C@H](N(C)C)[C@H]2O)[C@](C)(O)C[C@@H](C)C(=O)[C@H](C)[C@@H](O)[C@]1(C)O [erythromycin]
Acne [1]
  effectiveness in topical treatment of acne: effective in the topical treatment of acne
Acne [2]
  help in the management of acne: help in the management of acne

## C[S+](C)[O-] [DMSO, dimethyl sulfoxide]
Normal skin [3]
  skin irritation at 70% DMSO: usually non-irritating to normal skin
[4]
  toxicity: essentially nontoxic
Normal skin [5]
  skin reaction to undiluted DMSO: sometimes may cause an itching or burning sensation with redness or rash

## CN[C@H](CC(C)C)C(=O)N[C@H]1C(=O)N[C@@H](CC(N)=O)C(=O)N[C@H]2C(=O)N[C@H]3C(=O)N[C@H](C(=O)N[C@H](C(=O)O)c4cc(O)cc(O)c4-c4cc3ccc4O)[C@H](O)c3ccc(c(Cl)c3)Oc3cc2cc(c3O[C@@H]2O[C@H](CO)[C@@H](O)[C@H](O)[C@H]2O[C@H]2C[C@](C)(N)[C@H](O)[C@H](C)O2)Oc2ccc(cc2Cl)[C@H]1O [vancomycin]
Acne [1]
  effectiveness in topical treatment of acne: effective in the topical treatment of acne

## Cn1nnnc1SCC1=C(C(=O)O)N2C(=O)[C@@H](NC(=O)[C@H](O)c3ccccc3)[C@H]2SC1 [cefamandole]
Acne [1]
  effectiveness in topical treatment of acne: effective in the topical treatment of acne

## CC1(C)S[C@@H]2[C@H](NC(=O)C(C(=O)O)c3ccccc3)C(=O)N2[C@H]1C(=O)O (some centres unmarked) [carbenicillin]
Acne [1]
  effectiveness in topical treatment of acne: effective in the topical treatment of acne

## CN(C)C1C(=O)C(C(N)=O)=C(O)C2(O)C(=O)C3=C(O)c4c(O)cccc4C(C)(O)C3CC12 (centres unmarked) [tetracycline]
Acne [1]
  effectiveness in topical treatment of acne: effective in the topical treatment of acne
Acne [2]
  help in the management of acne: help in the management of acne

## CCOC(=O)c1ccc(N)cc1 [benzocaine]
Acne lesions
  influence of benzocaine on effectiveness of the medication: does not impair the effectiveness of the medication
[6]
  deleterious effect on the patient: Nor does the benzocaine appear to have any deleterious effect on the patient

## NC[C@H]1O[C@H](O[C@H]2[C@H](O)[C@@H](O[C@H]3O[C@H](CO)[C@@H](O)[C@H](N)[C@H]3O)[C@H](N)C[C@@H]2N)[C@H](N)C[C@@H]1O [tobramycin]
Acne [1]
  effectiveness in topical treatment of acne: effective in the topical treatment of acne

## CCC[C@@H]1C[C@@H](C(=O)N[C@@H]([C@H]2O[C@H](SC)[C@H](O)[C@@H](O)[C@H]2O)[C@@H](C)O)N(C)C1 [lincomycin]
Acne [1]
  effectiveness in topical treatment of acne: effective in the topical treatment of acne
Acne [2]
  help in the management of acne: help in the management of acne

## NCC[C@H](O)C(=O)N[C@@H]1C[C@H](N)[C@@H](O[C@H]2O[C@H](CN)[C@@H](O)[C@H](O)[C@H]2O)[C@H](O)[C@H]1O[C@H]1O[C@H](CO)[C@@H](O)[C@H](N)[C@H]1O [amikacin]
Acne [1]
  effectiveness in topical treatment of acne: effective in the topical treatment of acne

## Nc1ncnc2c1ncn2[C@@H]1O[C@H](CO)[C@@H](O)[C@@H]1O [ara-A, adenine-9- -D-arabinofuranoside]
rats
  amount equivalent to the acute oral LD50 in an average 150 pound person: more than 750 grams
[7]
  amount of ara-A dissolved versus DMSO concentration: The higher the concentration of DMSO in the solvent carrier medium, the greater is the amount of ara-A that can be dissolved
[8]
  chemical reaction between ara-A and DMSO: no chemical reaction
DNA viruses
  antiviral activity: active against a broad spectrum of DNA viruses
DNA viruses; listed as Ara-A
  antiviral activity: in some cases to be effective against Herpes simplex virus
DNA polymerase
  inhibition of DNA polymerase: inhibits the enzyme DNA polymerase
[9]
  toxicity through topical application: not possible to demonstrate toxicity
[9]; in some cases
  redness and irritation after topical application: redness and slight irritation has been noted
[10]
  side effects of massive acute overdosage: without any serious side effects
